Tests used:
[1] = molecular target: T1, GLP-1R (Homo sapiens, UniProt P43220); experiment: Tag-lite binding assay (competition with GLP-1 receptors red agonist); details: for IC50: HEK293 GLP-1 cells labeled with SNAP-Lumi4-Tb, red agonist 4.917 nM, 23° C., 2 h; for Ki: calculated from sample IC50 and red agonist Kd
Method: B. Tag-Lite Binding Assay
The cell line was constructed by WuXi.
10) Dispense cells into cell plate (1.8 M cells/well in 2 ml medium of 6-well plate, total 4 wells).
Second Day: Tag-Lite Binding Assay
3) The cell culture medium is removed from the 6-well plate and then 1 mL of Tag-lite SNAP-Lumi4-Tb diluted in Tag-lite labeling medium are added gently on the cells.
7) The testing compounds and reference compound are serially diluted with 3-fold, 10 points using Echo, then transfer 100 nL compounds to the assay plate.
8) Add the labeled cells to each well according to the plate map, 10000 cells/10 uL/well. Centrifuge the plate at 1000 rpm for 1 min.
9) Incubate the plate at 23° C., 30 min.
10) Add 50 nL of red agonist (final conc.: 4.917 nM) to destination plate using Echo.
11) Incubate the plate at 23° C. for 2 h.
12) Read the plate on an HTRF® compatible reader (at 665 nm and 620 nm).
% Inhibition=100%−(Ratio−LC)/(HC−LC)*100%
HC: The average ratio of adding DMSO wells
LC: The average ratio of adding the top concentration of reference compounds wells
b) The “log (inhibitor) vs. response—Variable slope” model in GraphPad Prism 5.0 was used to fit the dose-response curve of each sample. The sample concentration (x) and its corresponding % Inhibition data (y) were substituted into the model. The sample concentration (abscissa) was x=log(x) transformed. The transformed xy was used as the sample curve to obtain the IC50.
c) Calculate the sample Ki according to the sample IC50 and red agonist Kd. S in the formula is the actual used concentration of red agonist.

[2] = molecular target: T1, GLP-1R; experiment: GLP-1R agonist cAMP stimulation assay (HTRF cAMP); assay type: cell-based; details: HEK293 cell line expressing GLP-1 target; HTRF cAMP agonist mode, 30 min at RT
Outline: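 GLP-1R-expressing cells were stimulated with 10-point, 3-fold compound dilutions for 30 min at RT; HTRF cAMP detection reagents were then added for 60 min and the 665/615 ratio read. Ratios were converted to cAMP via a standard curve and % activity scaled between DMSO and top-concentration GLP-1(7-37) reference wells.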

T1 sequence (P43220 24-463): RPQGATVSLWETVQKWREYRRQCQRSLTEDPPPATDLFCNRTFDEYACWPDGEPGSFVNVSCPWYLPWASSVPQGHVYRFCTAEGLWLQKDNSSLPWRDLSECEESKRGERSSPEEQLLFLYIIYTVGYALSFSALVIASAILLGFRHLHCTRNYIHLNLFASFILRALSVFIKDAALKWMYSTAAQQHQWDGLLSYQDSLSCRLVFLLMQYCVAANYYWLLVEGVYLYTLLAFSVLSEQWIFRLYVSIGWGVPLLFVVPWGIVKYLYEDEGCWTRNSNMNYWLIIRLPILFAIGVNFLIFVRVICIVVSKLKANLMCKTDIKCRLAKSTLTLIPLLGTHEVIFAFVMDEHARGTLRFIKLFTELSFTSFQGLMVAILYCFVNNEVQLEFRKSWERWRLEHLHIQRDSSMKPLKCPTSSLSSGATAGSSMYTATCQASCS

Row | SMILES | IC50 [1] | Ki [1] | EC50 [2]
1 | Cc1n[nH]c2c(F)cc(C(=O)Nc3ccc4c(c3)nc(Cc3cc(F)c(-c5cccc(OCc6ccc(Cl)cc6F)n5)cc3F)n4C[C@@H]3CCO3)cc12 [Compound 413] | 28 nM | 14.1 nM | 0.49 nM
2 | O=C(Nc1cc(F)c2c(c1)C1(CC1)C(=O)N2)c1ccc2c(c1)nc(CN1CC=C(c3cccc(OCc4ccc(Cl)cc4F)n3)CC1)n2C[C@@H]1CCO1 [Compound 154] | 1580 nM | 904 nM | 0.45 nM
3 | Cc1n[nH]c2c(C)cc(C(=O)Nc3ccc4c(c3)nc(CN3CC=C(c5cccc(OCc6ccc(Cl)cc6F)n5)CC3)n4C[C@@H]3CCO3)cc12 [Compound 197] | 165 nM | 84 nM | 0.19 nM
4 | Cc1cc(NC(=O)c2ccc3c(c2)nc(CN2CC=C(c4cccc(OCc5ccc(C#N)cc5F)n4)CC2)n3C[C@@H]2CCO2)cc2c1NC(=O)C21CC1 [Compound 178] | 875 nM | 430 nM | 0.19 nM
5 | Cc1n[nH]c2ccc(C(=O)Nc3ccc4c(c3)nc(CN3CCC(c5cccc6c5OC(C)(c5ccc(Cl)cc5F)O6)CC3)n4CC3CCO3)cc12 (centres unmarked) [Compound 342] | 140 nM | 72.2 nM | 0.91 nM
6 | Cc1n[nH]c2c(C)cc(NC(=O)c3ccc4c(c3)nc(CN3CCC(c5cccc6c5OC(C)(c5ccc(C#N)cc5F)O6)CC3)n4CC3CCO3)cc12 (centres unmarked) [Compound 335] | 1110 nM | 615 nM | 0.97 nM
7 | Cc1n[nH]c2c(F)cc(NC(=O)c3ccc4c(c3)nc(CN3CC=C(c5cccc(OCc6ccc(Cl)cc6F)n5)CC3)n4C[C@@H]3CCO3)cc12 [Compound 153] | 1450 nM | 873 nM | 0.59 nM
8 | Cc1cc(NC(=O)c2ccc3c(c2)nc(CN2CCC(c4cccc(OCc5ccc(Cl)cc5F)n4)CC2)n3C[C@@H]2CCO2)cc2cn[nH]c12 [Compound 80] | 2320 nM | 1160 nM | 2.05 nM
9 | O=C(Nc1ccc2[nH]c(=O)[nH]c2c1)c1ccc2c(c1)nc(CN1CC=C(c3cccc(OCc4ccc(Cl)cc4F)n3)CC1)n2C[C@@H]1CCO1 [Compound 147] | 1750 nM | 841 nM | 0.68 nM
10 | Cc1n[nH]c2c(F)cc(C(=O)Nc3ccc4c(c3)nc(CN3CCC(c5cccc6c5OC(C)(c5ccc(Cl)cc5F)O6)CC3)n4CC3CCO3)cc12 (centres unmarked) [Compound 340] | 123 nM | 88.5 nM | 0.28 nM
11 | CCn1cncc1Cn1c(Cc2c(F)cc(-c3cccc(OCc4ccc(Cl)cn4)n3)cc2F)nc2cc(NC(=O)c3cc(F)c4[nH]nc(C)c4c3)ccc21 [Compound 407] | 180 nM | 110 nM | 0.16 nM
12 | Cc1n[nH]c2c(C)cc(C(=O)Nc3ccc4c(c3)nc(CN3CC=C(c5cccc6c5O[C@@](C)(c5ccc(Cl)cc5F)O6)CC3)n4CC3CCO3)cc12 (some centres unmarked) [Compound 384] | 110 nM | 68.3 nM | 0.08 nM
13 | O=C(Nc1ccc2[nH]c(=O)[nH]c2c1)c1ccc2c(c1)nc(CN1CCC(c3cccc(OCc4ccc(Cl)cc4F)n3)CC1)n2C[C@@H]1CCO1 [Compound 90] | 1900 nM | 950 nM | 1.59 nM
14 | Cc1n[nH]c2c(F)cc(C(=O)Nc3ccc4c(c3)nc(CN3CC=C(c5cccc(OCc6ccc(Cl)cc6F)n5)CC3)n4C[C@@H]3CCO3)cc12 [Compound 196] | 152 nM | 87.9 nM | 0.17 nM
15 | Cc1n[nH]c2c(C)cc(C(=O)Nc3ccc4c(c3)nc(CN3CCC(c5cccc6c5OC(C)(c5ccc(Cl)cc5F)O6)CC3)n4CC3CCO3)cc12 (centres unmarked) [Compound 341] | 158 nM | 95.5 nM | 0.31 nM
16 | Cc1n[nH]c2ccc(NC(=O)c3ccc4c(c3)nc(CN3CC=C(c5cccc6c5O[C@@](C)(c5ccc(Cl)cc5F)O6)CC3)n4C[C@@H]3CCO3)cc12 [Compound 5, 2-((4-((S)-2-(4-chloro-2-fluorophenyl)-2-methylbenzo[d][1,3]dioxol-4-yl)-3,6-dihydropyridin-1(2H)-yl)methyl)-N-(3-methyl-1H-indazol-5-yl)-1-(((S)-oxetan-2-yl)methyl)-1H-benzo[d]imidazole-5-carboxamide] | 1700 nM | 911 nM | 0.12 nM
17 | Cc1n[nH]c2c(C)cc(NC(=O)c3ccc4c(c3)nc(CN3CCC(c5cccc(OCc6ccc(Cl)cc6F)n5)CC3)n4C[C@@H]3CCO3)cc12 [Compound 100] | 1260 nM | 893 nM | 0.98 nM

Row | SMILES | IC50 [1] | Ki [1] | EC50 [2]
18 | Cc1n[nH]c2c(F)cc(NC(=O)c3ccc4c(c3)nc(CN3CCC(c5cccc6c5OC(C)(c5ccc(C#N)cc5F)O6)CC3)n4CC3CCO3)cc12 (centres unmarked) [Compound 334] | 1210 nM | 692 nM | 0.61 nM
19 | O=C(Nc1ccc2c(c1)nc(CN1CCC(c3cccc(OCc4ccc(Cl)cc4F)n3)CC1)n2C[C@@H]1CCO1)c1ccc2[nH]c(=O)[nH]c2c1 [Compound 85] | 143 nM | 71.7 nM | 0.41 nM
20 | Cc1n[nH]c2c(C)cc(NC(=O)c3ccc4c(c3)nc(CN3CC=C(c5cccc(OCc6ccc(Cl)cc6F)n5)CC3)n4C[C@@H]3CCO3)cc12 [Compound 151] | 1050 nM | 519 nM | 0.6 nM
21 | O=C(Nc1cc(F)c2c(c1)C1(CC1)C(=O)N2)c1ccc2c(c1)nc(CN1CCC(c3cccc(OCc4ccc(Cl)cc4F)n3)CC1)n2C[C@@H]1CCO1 [Compound 104] | – | – | 1.05 nM
22 | COCCn1c(C2CC23CCN(c2cccc(OCc4ccc(C#N)cc4F)n2)CC3)nc2ccc(C(=O)Nc3ccc4[nH]nc(C)c4c3)cc21 (centres unmarked) [Compound 8] | – | – | 1.33 nM
23 | Cc1n[nH]c2c(Cl)cc(NC(=O)c3ccc4c(c3)nc(CN3CCC(c5cccc6c5OC(C)(c5ccc(Cl)cc5F)O6)CC3)n4CC3CCO3)cc12 (centres unmarked) [Compound 338] | – | – | 1.32 nM
24 | O=C(Nc1ccn2ncc(Cl)c2c1)c1ccc2c(c1)nc(CN1CC=C(c3cccc(OCc4ccc(Cl)cc4F)n3)CC1)n2CC1CCO1 (centres unmarked) [Compound 149] | – | – | 34.6 nM
25 | CC1(c2ccc(Cl)cc2F)Oc2cccc(-c3cc(F)c(Cc4nc5cc(NC(=O)c6cc(F)c7c(c6)C(C6CC6)C(=O)N7)ccc5n4C[C@@H]4CCO4)c(F)c3)c2O1 (some centres unmarked) [Compound 326] | – | – | 0.64 nM
26 | COCCn1c(CN2CCC(c3cccc(OCc4ccc(Cl)cc4F)n3)CC2)nc2cc(C(=O)NCCc3ccc(C(F)(F)F)cc3)ccc21 [Compound 23] | – | – | > 10000 nM
27 | N#Cc1n[nH]c2ccc(NC(=O)c3ccc4c(c3)nc(CN3CCC(c5cccc(OCc6ccc(Cl)cc6F)n5)CC3)n4C[C@@H]3CCO3)cc12 [Compound 82] | – | – | 116 nM
28 | O=C(Nc1ccc2c(c1)nc(C1CC13CCC(c1cccc(OCc4ccc(Cl)cc4F)n1)CC3)n2CC1CCO1)c1ccc2[nH]nc(C3CC3)c2c1 (centres unmarked) [Compound 252] | – | – | 1.03 nM
29 | Cc1cc(NC(=O)c2ccc3c(c2)nc(CN2CC=C(c4cccc(OCc5ccc(Cl)cc5F)n4)CC2)n3C[C@@H]2CCO2)c(C)c2c(C)n[nH]c12 [Compound 173] | – | – | 31.5 nM
30 | O=C(Nc1ccc2[nH]nc(C3CC3)c2c1)c1ccc2c(c1)nc(CN1CCC(c3cccc(OCc4ccc(Cl)cc4F)n3)CC1)n2C[C@@H]1CCO1 [Compound 112] | – | – | 6.18 nM
31 | Cc1cc(NC(=O)c2ccc3c(c2)nc(CN2CCC(c4cccc(OCc5ccc(Cl)cc5F)n4)CC2)n3C[C@@H]2CCO2)cc2c(C3CC3)n[nH]c12 [Compound 114] | – | – | 1.04 nM
32 | COCCn1c(C2CC23CCN(c2cccc(OCc4ccc(C#N)cc4F)n2)CC3)nc2cc(C(=O)Nc3ccc4[nH]nc(C)c4c3)ccc21 (centres unmarked) [Compound 7] | – | – | 0.35 nM
33 | Cc1n[nH]c2ccc(C(=O)Nc3ccc4c(c3)nc(CN3CCC(c5cccc(OCc6ccc(Cl)cc6F)n5)CC3)n4CCOC(F)(F)F)cc12 [Compound 261] | – | – | 0.81 nM
34 | COC(=O)[C@@H]1CC(F)(F)CN1C(=O)CNC(=O)c1ccc2c(c1)nc(CN1CCC(c3cccc(OCc4ccc(Cl)cc4F)n3)CC1)n2C[C@@H]1CCO1 [Compound 64] | – | – | 151 nM
